Reference: ChEMBL document CHEMBL5724914, “Linking interpersonal differences in gut microbiota composition and drug biotransformation activity” (2024)

Columns and labels:
[1] = human gut metagenome, 24 h, 2 µM
[2] = (§1) The drug is tested on Z-008 corresponding to metagenome with ENA study accession number: PRJEB37062 and ENA sample accession number: ERS12561808 for biotransformation under anaerobic condition. The drug concentrations were measured over 9 timepoints collected between 0 and 24 hours of incubation by liquid-chromatography-coupled mass spectrometry (LC–MS); conditions: 2 µM
[3] = human gut metagenome, 24 h, 2 µM; remark: listed apart in the source
[4] = as §1, with “Z-010” for “Z-008”, “ERS12561810” for “ERS12561808”; conditions: 2 µM
[5] = human gut metagenome, 24 h, 2 µM; remark: listed apart in the source
[6] = human gut metagenome, 24 h, 2 µM; remark: listed apart in the source
[7] = The drug is tested on Z-029 corresponding to rat gut metagenome with ENA study accession number: PRJEB37062 and ENA sample accession number: ERS12561828 for biotransformation under anaerobic condition. The drug concentrations were measured over 9 timepoints collected between 0 and 24 hours of incubation by liquid-chromatography-coupled mass spectrometry (LC–MS); conditions: 2 µM
[8] = human gut metagenome, 24 h, 2 µM; remark: listed apart in the source
[9] = human gut metagenome, 24 h, 2 µM; remark: listed apart in the source
Also: call rule not given here.

- Bacterial Biotransformation [1]: Compound NOT metabolized
- Bacterial Biotransformation [2]: Compound NOT metabolized
- Bacterial Biotransformation [3]: Compound NOT metabolized
- Bacterial Biotransformation [4]: Compound NOT metabolized
- Bacterial Biotransformation [5]: Compound NOT metabolized
- Bacterial Biotransformation [6]: Compound NOT metabolized
- Bacterial Biotransformation [7]: Compound metabolized
- Bacterial Biotransformation [8]: Compound NOT metabolized
- Bacterial Biotransformation [9]: Compound NOT metabolized
Structure (SMILES): Cc1cn([C@H]2C[C@H](N=[N+]=[N-])[C@@H](CO)O2)c(=O)[nH]c1=O [ZIDOVUDINE]
